Assay results as given in patent US20140031283A1, “ANTICANCER FUSION PROTEIN” (ADAMED SP. Z O.O., priority 2011, published 2014).
Several values for one entry are separate records, joined by “and”; a condition that tells them apart may be missing. Identical values can stand only once. Like-named read-outs stand apart in the source and are kept apart here. Values belong to the molecule of their own block, whether it stands above or below them.

How the values were obtained:
[1] = test system: HCT-116
[2] = test system: NCI-H460
Method: Data analysis consists in determining IC50 concentration of the protein (in ng/ml), at which the 50% reduction in the number of cells occurs in the population treated compared to control cells. Results were analyzed using GraphPad Prism 5.0 software. […] Cell culture medium was diluted to a defined density (10^4-10^5 cells per 100 μl). Then 100 μl of appropriately diluted cell suspension was applied to a 96-well plate in triplicates. Thus prepared cells were incubated for 24 h at 37° C. in 5% or 10% CO2, depending on the medium used, and then to the cells (in 100 μl of medium) further 100 μl of the medium containing various concentrations of tested proteins were added. […] After incubation of the cells with tested proteins over the period of next 72 hours, which is equivalent to 3-4 times of cell division, the medium with the test protein was added with 20 ml of MTT working solution [5 mg/ml], and incubation was continued for 3 h at 37° C. in 5% CO2. Then the medium with MTT solution was removed, and formazan crystals were dissolved by adding 100 μl of DMSO. After stirring, the absorbance was measured at 570 nm (reference filter 690 nm).

[3] = test system: A549; assay: MTT cytotoxicity test, A549 (human lung cancer); format: cell-based
Description: MTT assay is a colorimetric assay used to measure proliferation, viability and cytotoxicity of cells. It consists in decomposition of a yellow tetrazolium salt MTT (4,5-dimethyl-2-thiazolyl)-2,5-diphenyltetrazolium bromide) to the water-insoluble purple dye formazan by mitochondrial enzyme succinate-tetrazolium reductase 1. MTT reduction occurs only in living cells. Data analysis consists in determining IC50 concentration of the protein (in ng/ml), at which the 50% reduction in the number of cells occurs in the population treated compared to control cells. Results were analyzed using GraphPad Prism 5.0 software. The test was performed according to the literature descriptions (Cells, J E, (1998). Cell Biology, a Laboratory Handbook, second edition, Academic Press, San Diego; Yang, Y., Koh, L W, Tsai, J H., (2004); Involvement of viral and chemical factors with oral cancer in Taiwan, Jpn J Clin Oncol, 34 (4), 176-183). Cell culture medium was diluted to a defined density (10^4-10^5 cells per 100 μl). Then 100 μl of appropriately diluted cell suspension was applied to a 96-well plate in triplicates. Thus prepared cells were incubated for 24 h at 37° C. in 5% or 10% CO2, depending on the medium used, and then to the cells (in 100 μl of medium) further 100 μl of the medium containing various concentrations of tested proteins were added. In the case of combination hTRAIL114-281 and p21WAF effector protein, 100 μl of the medium containing mixture of hTRAIL114-281 and p21WAF effector protein in molar ratio 1:1 was added. After incubation of the cells with tested proteins over the period of next 72 hours, which is equivalent to 3-4 times of cell division, the medium with the test protein was added with […] of MTT working solution [5 mg/ml], and incubation was continued for 3 h at 37° C. in 5% CO2. Then the medium with MTT solution was removed, and formazan crystals were dissolved by adding 100 μl of DMSO. After stirring, the absorbance was measured at 570 nm (reference filter 690 nm). […]

[4] = test system: HT144; assay: MTT cytotoxicity test, HT144 (human melanoma cells); format: cell-based
Description: (§1) MTT assay is a colorimetric assay used to measure proliferation, viability and cytotoxicity of cells. It consists in decomposition of a yellow tetrazolium salt MTT (4,5-dimethyl-2-thiazolyl)-2,5-diphenyltetrazolium bromide) to the water-insoluble purple dye formazan by mitochondrial enzyme succinate-tetrazolium reductase 1. MTT reduction occurs only in living cells. Data analysis consists in determining IC50 concentration of the protein (in ng/ml), at which the 50% reduction in the number of cells occurs in the population treated compared to control cells. Results were analyzed using GraphPad Prism 5.0 software. The test was performed according to the literature descriptions (Cells, J E, (1998). Cell Biology, a Laboratory Handbook, second edition, Academic Press, San Diego; Yang, Y., Koh, L W, Tsai, J H., (2004); Involvement of viral and chemical factors with oral cancer in Taiwan, Jpn J Clin Oncol, 34 (4), 176-183). Cell culture medium was diluted to a defined density (10^4-10^5 cells per 100 μl). Then 100 μl of appropriately diluted cell suspension was applied to a 96-well plate in triplicates. […] After stirring, the absorbance was measured at 570 nm (reference filter 690 nm). […]

[5] = test system: BxPC-3; assay: MTT cytotoxicity test, BxPC-3 (human pancreatic cancer); format: cell-based
Description: as §1

[6] = test system: CAKI 1; assay: MTT cytotoxicity test, CAKI 1 (human kidney cancer); format: cell-based; settings: continuous incubation over 72 h
Description: as §1

[7] = test system: ACHN; assay: MTT cytotoxicity test, ACHN (human kidney cancer); format: cell-based; settings: continuous incubation over 72 h
Description: as §1

[8] = test system: SW780; assay: MTT cytotoxicity test, SW780 (human bladder cancer); format: cell-based
Description: as §1

[9] = test system: NIH: OVCAR-3; assay: MTT cytotoxicity test, NIH: OVCAR-3 (human ovarian cancer); format: cell-based
Description: as §1

[10] = test system: MDA-MB-231; assay: MTT cytotoxicity test, MDA-MB-231 (human breast cancer); format: cell-based; settings: continuous incubation over 72 h, test MTT
Description: as §1

[11] = test system: MCF-7; assay: MTT cytotoxicity test, MCF-7 (human breast cancer); format: cell-based; settings: continuous incubation over 72 h
Description: as §1

[12] = test system: DU-145; assay: MTT cytotoxicity test, DU-145 (human prostate cancer); format: cell-based; settings: continuous incubation over 72 h
Description: as §1

[13] = test system: HepG2; assay: MTT cytotoxicity test, HepG2 (human liver hepatoma); format: cell-based; settings: continuous incubation over 72 h, test MTT
Description: as §1

[14] = test system: MDA-MB-435s; assay: MTT cytotoxicity test, MDA-MB-435s (human breast cancer); format: cell-based; settings: continuous incubation over 72 h
Description: as §1

[15] = test system: HT-29; assay: MTT cytotoxicity test, HT-29 (human colorectal cancer); format: cell-based; settings: continuous incubation over 72 h, test MTT
Description: as §1

[16] = test system: CAKI 2; assay: MTT cytotoxicity test, CAKI 2 (human kidney cancer); format: cell-based; settings: continuous incubation over 72 h
Description: as §1

[17] = test system: SK-OV-3; assay: MTT cytotoxicity test, SK-OV-3 (human ovarian cancer); format: cell-based; settings: continuous incubation over 72 h
Description: as §1

[18] = test system: UM-UC-3; assay: MTT cytotoxicity test, UM-UC-3 (human bladder cancer); format: cell-based
Description: as §1

[19] = test system: SW620; assay: MTT cytotoxicity test, SW620 (human colorectal cancer); format: cell-based; settings: continuous incubation over 72 h, test MTT
Description: as §1

[20] = test system: Colo 205; assay: MTT cytotoxicity test, Colo 205 (human colorectal cancer); format: cell-based
Description: as §1

[21] = test system: Panc03.27; assay: MTT cytotoxicity test, Panc03.27 (human pancreatic cancer); format: cell-based; settings: continuous incubation over 72 h
Description: as §1

[22] = test system: PLC/PRF/5; assay: MTT cytotoxicity test, PLC/PRF/5 (human liver hepatoma); format: cell-based; settings: continuous incubation over 72 h, test MTT
Description: as §1

[23] = test system: A498; assay: MTT cytotoxicity test, A498 (human kidney cancer); format: cell-based; settings: continuous incubation over 72 h
Description: as §1

[24] = test system: Jurkat A3; assay: EZ4U cytotoxicity test, Jurkat A3 (human leukaemia); format: cell-based; settings: continuous incubation over 72 h; heading prints test MTT
Method: EZ4U (Biomedica) test was used for testing cytotoxic activity of the proteins in nonadherent cell lines. The test is a modification of the MTT method, wherein formazan formed in the reduction of tetrazolium salt is water-soluble. Cell viability study was carried out after continuous 72-hour incubation of the cells with protein (seven concentrations of protein, each in triplicates). On this basis IC5O values were determined (as an average of two independent experiments) using the GraphPad Prism 5 software. Control cells were incubated with the solvent only.
The results of in vitro cytotoxicity tests are summarized as IC50 values (ng/ml), which corresponds to the protein concentration at which the cytotoxic effect of fusion proteins is observed at the level of 50% with respect to control cells treated only with solvent. Each experiment represents the average value of at least two independent experiments performed in triplicates. As a criterion of lack of activity of protein preparations the IC50 limit of 2000 ng/ml was adopted.

[25] = test system: SK-MES-1; assay: MTT cytotoxicity test, SK-MES-1 (human lung cancer); format: cell-based; settings: Table 4, mean/SD part
Description: as §1

[26] = test system: HT1080; assay: MTT cytotoxicity test, HT1080 (human fibrosarcoma); format: cell-based; settings: continuous incubation over 72 h
Description: as §1

[27] = test system: MES-SA/Dx5; assay: MTT cytotoxicity test, MES-SA/Dx5 (multidrug-resistant human uterine sarcoma); format: cell-based; settings: Table 4, mean/SD part
Description: as §1

[28] = test system: LNCaP; assay: MTT cytotoxicity test, LNCaP (human prostate cancer); format: cell-based; settings: Table 4, mean/SD part
Description: as §1

[29] = test system: SK-Hep-1; assay: MTT cytotoxicity test, SK-Hep-1 (human liver hepatoma); format: cell-based; settings: continuous incubation over 72 h
Description: as §1

[30] = test system: Panc-1; assay: MTT cytotoxicity test, Panc-1 (human pancreatic cancer); format: cell-based; settings: continuous incubation over 72 h, test MTT
Description: as §1

[31] = continuous incubation over 72 h, test MTT

- HCT116 IC50 ([1]; 72 h): >1000 µg/mL
- NCI-H460 IC50 ([2]; 72 h): >1000 µg/mL
Molecule: CC[C@H](C)[C@H](NC(=O)[C@H](CC(C)C)NC(=O)[C@H](CCCNC(=N)N)NC(=O)[C@H](CCCNC(=N)N)NC(=O)[C@H](CCCCN)NC(=O)[C@H](CO)NC(=O)[C@H](Cc1c[nH]cn1)NC(=O)[C@H](Cc1ccc(O)cc1)NC(=O)[C@H](Cc1ccccc1)NC(=O)[C@H](CC(=O)O)NC(=O)[C@@H](NC(=O)[C@H](C)NC(=O)[C@H](CO)NC(=O)[C@@H](NC(=O)[C@H](CCC(N)=O)NC(=O)[C@H](CCCNC(=N)N)NC(=O)[C@H](CCCNC(=N)N)NC(=O)[C@@H](N)CCCCN)[C@@H](C)O)[C@@H](C)O)C(=O)N[C@@H](Cc1ccccc1)C(=O)N[C@@H](CO)C(=O)O [peptide derived from p21WAF]
- A549 IC50 ([3]; 72 h): >1000 µg/mL

- HCT116 IC50 [1, 31]: >2 µg/mL
Molecule: TRAIL 95-281
- HT144 IC50 [4, 31]: 0.0341 µg/mL
- BxPC3 IC50 [5, 31]: 0.06061 µg/mL
- CAKI 1 IC50 [6]: 0.3953 µg/mL
- ACHN IC50 [7]: >2 µg/mL
- SW780 IC50 [8, 31]: 0.12 µg/mL
- OV-CAR-3 IC50 [9, 31]: 0.963 µg/mL
- MDA-MB-231 IC50 [10]: >2 µg/mL
- MCF 7 IC50 [11]: >2 µg/mL
- DU145 IC50 [12]: >2 µg/mL
- A549 IC50 [3, 31]: >2 µg/mL
- HepG2 IC50 [13]: >2 µg/mL
- MDA-MB-435s IC50 [14]: >2 µg/mL
- HT29 IC50 [15]: >2 µg/mL
- CAKI 2 IC50 [16]: >2 µg/mL
- SK-OV-3 IC50 [17]: >2 µg/mL
- UM-UC-3 IC50 [18, 31]: >2 µg/mL
- SW620 IC50 [19]: >2 µg/mL
- COLO205 IC50 [20, 31]: 0.05902 µg/mL

- HCT116 mean (IC50) ([1]; Table 4, mean/SD part): 7.558 µg/mL
- NCI-H460 IC50 [2, 31]: 0.4382 µg/mL
Molecule: rhTRAIL 95-281
- Panc03.27 IC50 [21]: 0.315 µg/mL
- HT 144 mean (IC50) ([4]; Table 4, mean/SD part): 1.7335 µg/mL
- PLC/PRF/5 IC50 [22]: >2 µg/mL
- A498 IC50 [23]: 1.611 µg/mL
- BxPC3 mean (IC50) ([5]; Table 4, mean/SD part): 0.06471 µg/mL
- JURKAT A3 IC50 [24]: >2 µg/mL
- NCI-H460 mean (IC50) ([2]; Table 4, mean/SD part): 5.8885 µg/mL and 5.888 µg/mL
- SK-MES-1 mean (IC50) [25]: 0.0336 µg/mL
- HT1080 IC50 [26]: >2 µg/mL
- SW780 mean (IC50) ([8]; Table 4, mean/SD part): 0.12 µg/mL
- OVCAR-3 mean (IC50) ([9]; Table 4, mean/SD part): 0.963 µg/mL
- MES-SA/Dx5 mean (IC50) [27]: 0.02915 µg/mL
- LNCaP mean (IC50) [28]: 2.0515 µg/mL
- SK Hep-1 IC50 [29]: >2 µg/mL
- Panc-1 IC50 [30]: >2 µg/mL
- UM-UC-3 mean (IC50) ([18]; Table 4, mean/SD part): 2.242 µg/mL and 2.241 µg/mL
- COLO 205 mean (IC50) ([20]; Table 4, mean/SD part): 0.0249 µg/mL
